Series [1] relates to human breast adenocarcinoma cell line, MCF-7. Briefly: resazurin viability assay, 72 h (Table 1). The class given is cell-based. Conditions: MCF7, 72h incubation, 156 nM-100 μM. An excerpt: (§1) In our experiments three different cell lines were used. Cells were purchased from the American Type Culture Collection (ATCC, Manassas, Va., USA). The human breast adenocarcinoma cell line, MCF-7 cells were maintained in Dulbecco's Modified Eagle Medium/Nutrient Mixture F-12 (DMEM/F12) 10% fetal calf serum (FCS, Gibco) and mouse mammary carcinoma 4T1 and human promyelocytic leukemia, HL-60 cells were maintained in Roswell Park Memorial Institute 1640 medium (RPMI-1640) 10% FCS. Media were supplemented with 2 mM GlutaMAX, and 100 U/mL penicillin, 100 μg/mL streptomycin (Life Technologies, Carlsbad, Calif., USA). Cell cultures were maintained at 37° C. in a humidified incubator in an atmosphere of 5% CO2 (Sanyo, Japan).
(§2) For viability assays cells were seeded in 96 well plates (MCF7 and 4T1: 6000, HL60: 120.000 cells/well) and incubated overnight. Compounds were dissolved in dimethyl sulfoxide (DMSO). Cells were treated with an increasing concentration of compounds having the general formula (I.) (156 nM-100 μM). Cell viability was determined after 72h incubation. Resazurin reagent (Sigma-Aldrich) was dissolved in PBS (pH 7.4) at 0.15 mg/ml concentration, sterile filtered (0.22 μm, Merck Millipore) and aliquoted at −20° C. Resazurin reagent (Sigma-Aldrich) was added at a final concentration of 25 μg/ml. After 2 hours incubation at 37° C. 5% CO2 fluorescence (530 nm excitation/580 nm emission) was recorded on a multimode microplate reader (Cytofluor4000, PerSeptive Biosytems). Viability was calculated with relation to untreated control cells and blank wells containing media without cells. IC50 values (50% inhibiting concentration) were calculated by GraphPad Prism® 5 (La Jolla, Calif., USA).

For series [2], the system named is human promyelocytic leukemia, HL-60 cells. Briefly: resazurin viability assay, 72 h (Table 1). The class given is cell-based. Conditions: 72h incubation, 156 nM-100 μM.
Excerpt: as §1, §2
On the technique in general: Alamar Blue is a resazurin reagent that responds to reducing activity.

For series [3], the system named is mouse mammary carcinoma 4T1. Briefly: resazurin viability assay, 72 h (Table 1). The class given is cell-based. The conditions noted are these: 72h incubation, 156 nM-100 μM.
Excerpt: as §1, §2

The structures appear in SMILES notation.

The IC50 is the point on the concentration scale where inhibition reaches its midpoint. High values mean a need for much substance, low ones inhibition by little substance. The term melting point denotes the temperature, or range, at which the solid turns liquid. With `C/C(=C\c1ccccc1)c1[nH]c2c(C(N)=O)cnn2c1NC(C)(C)C` [Example 15, (E)-3-(Tert-butylamino)-2-(1-phenylprop-1-en-2-yl)-1H-imidazo[1,2-b]pyrazole-7-carbox-amide], the melting point was 190 to 191 °C. The IC50 in series [1] is more than 50 µM. This compound yielded an IC50 in series [2] of 29.2 µM. The compound further showed an IC50 in series [3] of more than 50 µM.
The compound `CC(C)(C)CC(C)(C)Nc1c(C2CCCCC2)[nH]c2c(C(N)=O)cnn12` [Example 16, 2-Cyclohexyl-3-((2,4,4-trimethylpentan-2-yl)amino)-1H-imidazo[1,2-b]pyrazole-7-carbox-amide] yielded a melting point of 190 to 192 °C. The compound further displayed an IC50 in series [1] of 11.1 µM. For the same compound, the midpoint of inhibition in series [2], the IC50, lay at 9.35 µM. The IC50 in series [3] amounted to 12.3 µM.
On to `CC(C)(C)c1[nH]c2c(C(N)=O)cnn2c1NC1CCCCC1` [Example 18, 2-(Tert-butyl)-3-(cyclohexylamino)-1H-imidazo[1,2-b]pyrazole-7-carboxamide], for which the melting point is 148 to 149 °C. Further, the IC50 in series [1] is 4.07 µM. In addition, in series [2], the IC50 came to 2.95 µM. In series [3], this compound showed a concentration for half-maximal inhibition (IC50) of 4.24 µM.
Taken in the same sequence, the figures for `CC(C)(C)Nc1c(C(C)(C)C)[nH]c2c(C(N)=O)cnn12` [Example 19, 2-(Tert-butyl)-3-(tert-butylamino)-1H-imidazo[1,2-b]pyrazole-7-carboxamide] were 221 °C, 27.9 µM, 4.99 µM and 23.9 µM.
`COc1ccc(Nc2c(C(C)(C)C)[nH]c3c(C(N)=O)cnn23)cc1` [Example 20, 2-(Tert-butyl)-3-((4-methoxyphenyl)amino)-1H-imidazo[1,2-b]pyrazole-7-carboxamide] displayed a melting point of 260 to 262 °C. The concentration for half-maximal inhibition (IC50) in series [1] is more than 50 µM. Further, the IC50 in series [2] is 8.8 µM. The same compound gave an IC50 in series [3] of more than 50 µM.
The compound `CC(C)(C)c1[nH]c2c(C(N)=O)cnn2c1Nc1ccc(F)cc1` [Example 21, 2-(Tert-butyl)-3-((4-fluorophenyl)amino)-1H-imidazo[1,2-b]pyrazole-7-carboxamide] came in with a melting point of 249 to 250 °C. Besides, the IC50 in series [1] is 40.5 µM. In series [2], this compound gave a half-maximal inhibitory concentration (IC50) of 24.4 µM. The 50% inhibitory concentration (IC50) in series [3] is more than 50 µM.
The compound `CC(C)(C)CC(C)(C)Nc1c(C2CC2)[nH]c2c(C(N)=O)cnn12` [Example 23, 2-Cyclopropyl-3-((2,4,4-trimethylpentan-2-yl)amino)-1H-imidazo[1,2-b]pyrazole-7-carboxamide] showed a melting point of 205 to 207 °C. This compound also had an IC50 in series [1] of more than 50 µM. Further, in series [2], the IC50 was 5.49 µM. The compound also had an IC50 in series [3] of more than 50 µM.
For `CCc1[nH]c2c(C(N)=O)cnn2c1NC(C)(C)CC(C)(C)C` [Example 24, 2-Ethyl-3-((2,4,4-trimethylpentan-2-yl)amino)-1H-imidazo[1,2-b]pyrazole-7-carboxamide], the melting point is 207 to 209 °C. This compound displayed an IC50 in series [1] of more than 50 µM. The same compound yielded an IC50 in series [2] of 27.9 µM. In series [3], this compound registered an IC50 of more than 50 µM.
Compound `CC(C)c1[nH]c2c(C(N)=O)cnn2c1NC(C)(C)CC(C)(C)C` [Example 25, 2-Isopropyl-3-((2,4,4-trimethylpentan-2-yl)amino)-1H-imidazo[1,2-b]pyrazole-7-carbox-amide] returned a melting point of 132 to 134 °C. The same compound came in with a half-maximal inhibitory concentration (IC50) in series [1] of 10.6 µM. For the same compound, in series [2], 7.79 µM corresponded to half-maximal inhibition (IC50). The compound also gave an IC50 in series [3] of 3.63 µM.
Consider `C=CCC(C)(C)c1[nH]c2c(C(N)=O)cnn2c1NC(C)(C)CC(C)(C)C` [Example 26, 2-(2-Methylpent-4-en-2-yl)-3-((2,4,4-trimethylpentan-2-yl)amino)-1H-imidazo[1,2-b]pyrazole-7-carboxamide], for which the melting point fell in the range of 161 to 163 °C. The same compound showed an IC50 in series [1] of 8.29 µM. Also, half-maximal inhibition in series [2] (IC50) required 1.37 µM. In series [3], 9.95 µM corresponded to half-maximal inhibition (IC50).
The compound `CCC(CC)(CCC#N)c1[nH]c2c(C(N)=O)cnn2c1NC(C)(C)CC(C)(C)C` [Example 27, 2-(1-Cyano-3-ethylpentan-3-yl)-3-((2,4,4-trimethylpentan-2-yl)amino)-1H-imidazo[1,2-b]pyrazole-7-carboxamide] registered a melting point of 184 to 186 °C. Further, the IC50 in series [1] was found to be 18 µM. The IC50 in series [2] stood at 14.8 µM. The same compound registered an IC50 in series [3] of 11.6 µM.
In turn, `CNC(=O)c1cnn2c(NC(C)(C)CC(C)(C)C)c(C(C)(C)C)[nH]c12` [Example 28, 2-(Tert-butyl)-N-methyl-3-((2,4,4-trimethylpentan-2-yl)amino)-1H-imidazo[1,2-b]pyrazole-7-carboxamide] yielded a melting point of 173 to 174 °C. This compound had an IC50 in series [1] of 4.46 µM. Further, the IC50 in series [2] was determined as 1.52 µM. The same compound had an IC50 in series [3] of 4.66 µM.
The matching figures for `CCCCNC(=O)c1cnn2c(NC(C)(C)CC(C)(C)C)c(C(C)(C)C)[nH]c12` [Example 29, 2-(Tert-butyl)-N-butyl-3-((2,4,4-trimethylpentan-2-yl)amino)-1H-imidazo[1,2-b]pyrazole-7-carboxamide]: 147 to 148 °C, 34.1 µM, 2.72 µM and more than 50 µM.
In the case of `CC(C)(C)CC(C)(C)Nc1c(C(C)(C)C)[nH]c2c(C(=O)NC3CC3)cnn12` [Example 31, 2-(Tert-butyl)-N-cyclopropyl-3-((2,4,4-trimethylpentan-2-yl)amino)-1H-imidazo[1,2-b]pyrazole-7-carboxamide], the melting point came to 161 °C. The same compound came in with an IC50 in series [1] of 1.69 µM. Inhibition in series [2] was half-maximal at 1.61 µM (IC50). In series [3], this compound yielded an IC50 of 4.01 µM.
As to `CC(C)(C)CC(C)(C)Nc1c(C(C)(C)C)[nH]c2c(C(=O)NCc3ccccc3)cnn12` [Example 33, N-Benzyl-2-(tert-butyl)-3-((2,4,4-trimethylpentan-2-yl)amino)-1H-imidazo[1,2-b]pyrazole-7-carboxamide], the melting point is 118 to 119 °C. Besides, in series [1], the 50% inhibitory concentration (IC50) worked out at 8.57 µM. In series [2], this compound registered an IC50 of 6.26 µM. In series [3], this compound came in with an IC50 of 9.31 µM.
`CC(C)(C)CC(C)(C)Nc1c(C(C)(C)C)[nH]c2c(C(=O)Nc3ccccc3)cnn12` [Example 34, 2-(Tert-butyl)-N-phenyl-3-((2,4,4-trimethylpentan-2-yl)amino)-1H-imidazo[1,2-b]pyrazole-7-carboxamide] yielded a melting point of 147 °C. The compound further returned a half-inhibitory concentration (IC50) in series [1] of 18.3 µM. Half-maximal inhibition in series [2] (IC50) required 0.604 µM. This compound also showed a half-maximal inhibitory concentration (IC50) in series [3] of 28.5 µM.
Taken in the same sequence, the figures for `CC(C)(C)CC(C)(C)Nc1c(C(C)(C)C)[nH]c2c(C(=O)Nc3ccccn3)cnn12` [Example 35, 2-(Tert-butyl)-N-(pyridin-2-yl)-3-((2,4,4-trimethylpentan-2-yl)amino)-1H-imidazo[1,2-b]pyrazole-7-carboxamide] were 144 to 145 °C, 8.35 µM, 4.38 µM and 6.91 µM.
As for `CC(C)(C)CC(C)(C)Nc1c(C(C)(C)C)[nH]c2c(C(=O)Nc3cccnc3)cnn12` [Example 36, 2-(Tert-butyl)-N-(pyridin-3-yl)-3-((2,4,4-trimethylpentan-2-yl)amino)-1H-imidazo[1,2-b]pyrazole-7-carboxamide], the melting point lay within 186 to 187 °C. In series [1], this compound showed an IC50 of 1.9 µM. Further, the IC50 in series [2] was determined as 0.934 µM. It took 2.59 µM to reach half-maximal inhibition in series [3] (IC50).
In the case of `CC(C)(C)CC(C)(C)Nc1c(C(C)(C)C)[nH]c2c(C(=O)Nc3ccncc3)cnn12` [Example 37, 2-(Tert-butyl)-N-(pyridin-4-yl)-3-((2,4,4-trimethylpentan-2-yl)amino)-1H-imidazo[1,2-b]pyrazole-7-carboxamide], the melting point lay in the range of 185 to 186 °C. The compound also showed an IC50 in series [1] of 2.55 µM. In series [2], this compound gave an IC50 of 2.71 µM. In addition, the IC50 in series [3] was determined as 4.34 µM.
Consider `CC(C)(C)CC(C)(C)Nc1c(C(C)(C)C)[nH]c2c(C(=O)Nc3nccs3)cnn12` [Example 38, 2-(Tert-butyl)-N-(thiazol-2-yl)-3-((2,4,4-trimethylpentan-2-yl)amino)-1H-imidazo[1,2-b]pyrazole-7-carboxamide], for which the melting point lay in the range of 125 to 127 °C. This compound displayed an IC50 in series [1] of 1.95 µM. For the same compound, the IC50 in series [2] was found to be 2.86 µM. Moreover, in series [3], half-maximal inhibition (IC50) was put at 2.41 µM.
The compound `CC(C)(C)CC(C)(C)Nc1c(C(C)(C)C)[nH]c2c(C(=O)Nc3ccon3)cnn12` [Example 39, 2-(Tert-butyl)-N-(isoxazol-3-yl)-3-((2,4,4-trimethylpentan-2-yl)amino)-1H-imidazo[1,2-b]pyrazole-7-carboxamide] displayed a melting point of 185 to 186 °C. In addition, in series [1], the midpoint of inhibition, the IC50, lay at 1.7 µM. Moreover, 0.935 µM corresponded to half-maximal inhibition in series [2] (IC50). The same compound gave an IC50 in series [3] of 2.85 µM.

The record behind these values is patent US20220064167A1, “IMIDAZO-PYRAZOLE CARBOXAMIDE DERIVATIVES AS ANTICANCER AGENTS AND THE SYNTHESIS THEREOF” (AVIDIN KFT., priority 2018, published 2022).
